Measured values as given in patent US9375013B2, “Herbicidal composition” (ISHIHARA SANGYO KAISHA, LTD., priority 2013, dated 2016).

Assays:
Assay type in all cases: in vivo
[1] = system: field bindweed (Convolvulus arvensis L.); test: Test Example 15: pot soil treatment, growth inhibition of field bindweed; details: dose 30 g/ha, 21st day after treatment, read-out: Growth inhibition rate (%) of field bindweed, Measured value
From the text: (§1) On the 14th day after treatment, the state of growth of the summergrass was visually observed to determine the growth inhibition rate in accordance with the following evaluation standard. The growth inhibition rate (%) (measured value) and the growth inhibition rate (%) (calculated value) calculated by the Colby's formula are shown in Table 1. Growth inhibition rate (%)=0 (equivalent to the non-treated area) to 100 (complete kill) Upland field soil was put into a 1/160,000 ha pot, and seeds of field bindweed (Convolvulus arvensis L.) were sown. On the next day, predetermined amounts of flazasulfuron, mesotrione and imazapic were diluted with water (in an amount corresponding to 300 L/ha), and applied for soil treatment by a small sprayer. On the 21st day after treatment, the state of growth of the field bindweed was visually observed to determine the growth inhibition rate. The growth inhibition rate (%) (measured value) and the growth inhibition rate (%) calculated in the same manner as in Test Example 1 are shown in Table 15.

[2] = system: field bindweed (Convolvulus arvensis L.); test: Test Example 5: pot soil treatment, growth inhibition of field bindweed; details: dose 30 g/ha, 22nd day after treatment, read-out: Growth inhibition rate (%) of field bindweed, Measured value
From the text: as §1, with “flazasulfuron” for “flazasulfuron, mesotrione”, “hexazinone” for “imazapic”, “22nd” for “21st”, “5.” for “15.”

[3] = system: barnyardgrass (Echinochloa crus-galli L); test: Test Example 9: pot soil treatment, growth inhibition of barnyardgrass; details: dose 30 g/ha, 21st day after treatment, read-out: Growth inhibition rate (%) of barnyardgrass, Measured value
From the text: as §1, with “barnyardgrass (Echinochloa crus-galli L)” for “field bindweed (Convolvulus arvensis L.)”, “flazasulfuron” for “flazasulfuron, mesotrione”, “hexazinone” for “imazapic”, “barnyardgrass” for “field bindweed”, “9.” for “15.”

[4] = system: persian speedwell (Veronica persica Poiret.); test: Test Example 10: pot soil treatment, growth inhibition of persian speedwell; details: dose 30 g/ha, 21st day after treatment, read-out: Growth inhibition rate (%) of persian speedwell, Measured value
[5] = system: rostrate sesbania(Sesbania rostrata Bremek. & Oberm.); test: Test Example 7: pot soil treatment, growth inhibition of rostrate sesbania; details: 22nd day after treatment, read-out: Growth inhibition rate (%) of rostrate sesbania, Measured value
[6] = system: velvetleaf (Abutilon theophrasti MEDIC.); test: Test Example 14: pot soil treatment, growth inhibition of velvetleaf; details: dose 30 g/ha, 21st day after treatment, read-out: Growth inhibition rate (%) of velvetleaf, Measured value
From the text: as §1, with “velvetleaf (Abutilon theophrasti MEDIC.)” for “field bindweed (Convolvulus arvensis L.)”, “flazasulfuron” for “flazasulfuron, mesotrione”, “hexazinone” for “imazapic”, “velvetleaf” for “field bindweed”, “14.” for “15.”

[7] = system: common lespedeza (Lespedeza striata (Thunb.) Hook. et Arn.); test: Test Example 12: pot soil treatment, growth inhibition of common lespedeza; details: Kummerowia striata, dose 30 g/ha, 21st day after treatment, read-out: Growth inhibition rate (%) of common lespedeza, Measured value
From the text: as §1, with “common lespedeza (Lespedeza striata (Thunb.) Hook. et Arn.)” for “field bindweed (Convolvulus arvensis L.)”, “flazasulfuron” for “flazasulfuron, mesotrione”, “common lespedeza” for “field bindweed”, “12.” for “15.”

[8] = system: persian speedwell (Veronica persica Poir.); test: Test Example 8: pot soil treatment, growth inhibition of persian speedwell; details: 21st day after treatment, read-out: Growth inhibition rate (%) of persian speedwell, Measured value
[9] = system: summergrass (Digitaria ciliaris (Retz.) Koeler); test: Test Example 1: pot soil treatment, growth inhibition of summergrass; details: dose 10 g/ha, 14th day after treatment, read-out: Growth inhibition rate (%) of summergrass, Measured value
Experimental: Upland field soil was put into a 1/160,000 ha pot, and seeds of summergrass (Digitaria ciliaris (Retz.) Koeler) were sown. On the next day, predetermined amounts of flazasulfuron and imazapic were diluted with water (in an amount corresponding to 300 L/ha), and applied for soil treatment by a small sprayer. On the 14th day after treatment, the state of growth of the summergrass was visually observed to determine the growth inhibition rate in accordance with the following evaluation standard. The growth inhibition rate (%) (measured value) and the growth inhibition rate (%) (calculated value) calculated by the Colby's formula are shown in Table 1. Growth inhibition rate (%)=0 (equivalent to the non-treated area) to 100 (complete kill)

## COc1cc(OC)nc(NC(=O)NS(=O)(=O)c2ncccc2C(F)(F)F)n1 [Flazasulfuron, flazasulfuron]
[1]
  inhibition at 30 g/ha: 0%
[2]
  inhibition at 30 g/ha: 0%
[3]
  inhibition at 30 g/ha: 90%
[4]
  inhibition at 30 g/ha: 15%
[5]
  inhibition at 50 g/ha: 35%
[6]
  inhibition at 30 g/ha: 20%
[7]
  inhibition at 30 g/ha: 90%
[8]
  inhibition at 50 g/ha: 20%
[9]
  inhibition at 10 g/ha: 15%
